Laboratory results from patent publication US4588720A, “Imidazo[1,2-a]pyrimidines” (Roussel Uclaf, priority 1982, dated 1986).

Legend:
[1] = biological target: benzodiazepine receptors; test: Affinity for benzodiazepine receptors ([3H] flunitrazepam radioreceptor binding); settings: inhibition of specific binding of 0.6 nM [^3 H] flunitrazepam, rat forebrain membrane preparations; read-out: Receptor Binding (IC50 nM)
Protocol: A. Affinity for benzodiazepine receptors
The affinity of the compounds for benzodiazepine receptors was assessed using the radioligand [^3 H] flunitrazepam and modifications of the original radioreceptor binding method of Squares and Braestrup (Nature, Vol. 266 (1977) p. 732). The values given in Table VI are nanomolar concentrations of test compound which inhibited the specific binding of 0.6 nM[^3 H] flunitrazepam to rat forebrain membrain preparations by 50% (IC50 nM).

[2] = Anxiolytic activity, Geller conflict method (Geller and Seifter); type: in vivo; settings: po; modified Geller and Seifter conflict method; read-out: Geller Conflict (MED mg/kg po), minimum effective dose at which there was an observed increase in shocks above control
Protocol: Screening for anxiolytic activity was carried out by modifications of the conflict method of Geller and Seifter (Psychopharmacologia, (1960), Volume I, p. 482). The values given in Table VI are the minimum effective doses at which there was an observed increase in shocks above control (MED me/kg po).

Compound	IC50 [1]	minimal effective dose [2]
COc1nc2nc(C(=O)c3ccccc3)cn2c2c1CCCC2 [Example 1, (5-methoxy-6,7,8.9-tetrahydroimidazo[1,2-a]quinazolin-2-yl)phenylmethanone]	61 nM	5 mg/kg
COc1cc(C)n2cc(C(=O)c3ccccc3)nc2n1 [Example 3, (7-Methoxy-5-methylimidazol[1,2-a]pyrimidin-2-yl)-phenyl methanone]	800 nM	5 mg/kg
COc1nc2nc(C(=O)c3ccccc3)cn2c2c1CCC2 [Example 4, (5-Methoxycyclopenta[e]imidazol[1,2-a]pyrimidin-2-yl)-phenylmethanone]	200 nM	20 mg/kg
CSc1nc2nc(C(=O)c3ccccc3)cn2c2c1CCC2 [Example 6, [5-(Methylthio)cyclopenta[e]imidazo[1,2-a]pyrimidin-2-yl]phenylmethanone]	35 nM	2 mg/kg
COc1nc2nc(C(=O)c3ccccc3)cn2c(C)c1C [Example 7, (7-Methoxy-5,6-dimethylimidazo[1,2-a]pyrimidin-2-yl)phenylmethanone]	235 nM	50 mg/kg
COc1nc2nc(C(=O)c3ccccc3)cn2c2c1CCCCC2 [Example 8]	125 nM	10 mg/kg
COc1nc2nc(C(=O)c3ccccc3)cn2c(C)c1Cc1ccccc1 [Example 9, (6-Benzyl-7-methoxy-5-methylimidazo[1,2-a]pyrimidin-2-yl)phenylmethanone]	45 nM	50 mg/kg
CCOc1nc2nc(C(=O)c3ccccc3)cn2c2c1CCCCC2 [Example 10]	4000 nM	5 mg/kg
COc1nc2nc(C(=O)c3ccccc3)cn2c(C)c1C(C)C [Example 11, (7-Methoxy-5-methyl-6-(1-methylethyl)imidazo[1,2-a]pyrimidin-2-yl)phenylmethanone]	37 nM	2 mg/kg
CSc1nc2nc(C(=O)c3ccccc3)cn2c2c1CCCC2 [Example 12, [5-(Methylthio)-6,7,8,9-tetrahydroimidazo[1,2-a]quinazolin-2-yl]phenylmethanone]	8.5 nM	10 mg/kg
CCSc1nc2nc(C(=O)c3ccccc3)cn2c2c1CCC2 [Example 13, [5-(Ethylthio)cyclopenta[e]imidazo[1,2-a]pyrimidin-2-yl]phenylmethanone]	1850 nM	50 mg/kg
CCCc1cc(OC)nc2nc(C(=O)c3ccccc3)cn12 [Example 14, (7-Methoxy-5-propylimidazo[1,2-a]pyrimidin-2-yl)phenylmethanone]	535 nM	1 mg/kg
CCc1cc(OC)nc2nc(C(=O)c3ccccc3)cn12 [Example 15, (5-Ethyl-7-methoxyimidazo[1,2-a]pyrimidin-2-yl)phenylmethanone]	295 nM	2 mg/kg
CCc1c(OC)nc2nc(C(=O)c3ccccc3)cn2c1C [Example 16, (6-Ethyl-7-methoxy-5-methylimidazo[1,2-a]pyrimidin-2-yl)phenylmethanone]	56 nM	2 mg/kg
COc1nc2nc(C(=O)c3ccccc3)cn2c2c1CCC(C)C2 (stereo not drawn) [Example 17, (5-Methoxy-8-methyl-6,7,8,9-tetrahydroimidazo[1,2-a]quinazolin-2-yl]phenylmethanone]	135 nM	10 mg/kg
CSc1nc2nc(C(=O)c3ccccc3)cn2c2c1CCC(C)C2 (stereo not drawn) [Example 18, [8-Methyl-5-(methylthio)-6,7,8,9-tetrahydroimidazo[1,2-a]quinzolin-2-yl]phenylmethanone]	76 nM	50 mg/kg
CCCCCCc1c(OC)nc2nc(C(=O)c3ccccc3)cn2c1C [Example 19, (6-n-Hexyl-7-methoxy-5-methylimidazo[1,2-a]pyrimidin-2-yl)phenylmethanone]	180 nM	20 mg/kg
C=CCc1c(OC)nc2nc(C(=O)c3ccccc3)cn2c1C [Example 20, (6-Allyl-7-methoxy-5-methylimidazo[1,2-a]pyrimidin-2-yl)phenylmethanone]	45 nM	4 mg/kg
CSc1cc(C)n2cc(C(=O)c3ccccc3)nc2n1 [Example 21, [5-Methyl-7-(methylthio)imidazo[1,2-a]pyrimidin-2-yl]phenylmethanone]	190 nM	50 mg/kg
CCCc1cc(SC)nc2nc(C(=O)c3ccccc3)cn12 [Example 22, [7-(Methylthio)-5-propylimidazo[1,2-a]pyrimidin-2-yl]phenylmethanone]	89 nM	50 mg/kg
COc1nc2nc(C(=O)c3ccccc3)cn2c(C)c1CC1CC1 [Example 23, [6-Cyclopropylmethyl-7-methoxy-5-methylimidazo[1,2-a]pyrimidin-2-yl]phenylmethanone]	30 nM	10 mg/kg

Compound	IC50 [1]	minimal effective dose [2]
COc1nc2nc(C(=O)c3ccccc3)cn2c(C)c1CC1CCCCC1 [Example 24, [6-Cyclohexylmethyl-7-methoxy-5-methylimidazo[1,2-a]pyrimidin-2-yl]phenylmethanone]	250 nM	50 mg/kg
CCOc1nc2nc(C(=O)c3ccccc3)cn2c(C)c1CC [Example 25, [7-Ethoxy-6-ethyl-5-methylimidazo[1,2-a]pyrimidin-2-yl]phenylmethanone]	1900 nM	50 mg/kg
CCCc1c(C)c(OC)nc2nc(C(=O)c3ccccc3)cn12 [Example 26, [7-Methoxy-6-methyl-5-propylimidazo[1,2-a]pyrimidin-2-yl]phenylmethanone]	740 nM	20 mg/kg
CCCc1c(CC)c(OC)nc2nc(C(=O)c3ccccc3)cn12 [Example 27, [6-Ethyl-7-methoxy-5-n-propylimidazo[1,2-a]pyrimidin-2-yl]phenylmethanone]	470 nM	50 mg/kg
COc1ccn2cc(C(=O)c3ccccc3)nc2n1 [Example 28, [7-Methoxyimidazo[1,2-a]pyrimidin-2-yl]phenylmethanone]	8500 nM	50 mg/kg
CCc1c(C)c(OC)nc2nc(C(=O)c3ccccc3)cn12 [Example 29, [5-Ethyl-7-methoxy-6-methylimidazo[1,2-a]pyrimidin-2-yl]phenylmethanone]	1000 nM	20 mg/kg
CCCCc1c(OC)nc2nc(C(=O)c3ccccc3)cn2c1C [Example 30, [6-n-Butyl-7-methoxy-5-methylimidazo[1,2-]pyrimidin-2-yl]phenylmethanone]	42 nM	2 mg/kg
CCc1c(OC)nc2nc(C(=O)c3ccccc3)cn2c1CC [Example 31, [5,6-Diethyl-7-methoxyimidazo[1,2-a]pyrimidin-2-yl]phenylmethanone]	107 nM	2 mg/kg
CCCc1c(OC)nc2nc(C(=O)c3ccccc3)cn2c1C [Example 32, [7-Methoxy-5-methyl-6-n-propylimidazo[1,2-a]pyrimidin-2-yl]phenylmethanone]	85 nM	5 mg/kg
CCCc1c(OC)nc2nc(C(=O)c3ccccc3)cn2c1CCC [Example 33, [7-Methoxy-5,6-di-n-propylimidazo[1,2-a]pyrimidin-2-yl]phenylmethanone]	1250 nM	50 mg/kg
CCCCc1c(OC)nc2nc(C(=O)c3ccccc3)cn2c1CCC [Example 34, [6-n-Butyl-7-methoxy-5-n-propylimidazo[1,2-a]pyrimidin-2-yl]phenylmethanone]	710 nM	50 mg/kg
CCCc1c(OC)nc2nc(C(=O)c3ccccc3)cn2c1CC [Example 35, [5-Ethyl-7-methoxy-6-n-propylimidazo[1,2-a]pyrimidin-2-yl]phenylmethanone]	34 nM	10 mg/kg
CCCCc1c(OC)nc2nc(C(=O)c3ccccc3)cn2c1CC [Example 36, [6-n-Butyl-5-ethyl-7-methoxy-imidazo[1,2-a]pyrimidin-2-yl]phenylmethanone]	34 nM	10 mg/kg
CCc1c(SC)nc2nc(C(=O)c3ccccc3)cn2c1CC [Example 52, [5,6-Diethyl-7-(methylthio)imidazo[1,2-a]pyrimidin-2-yl]phenylmethanone]	12 nM	
CCCc1c(SC)nc2nc(C(=O)c3ccccc3)cn2c1CC [Example 53, [5-Ethyl-7-(methylthio)-6-n-propylimidazo[1,2-a]pyrimidin-2-yl]phenylmethanone]	47 nM	
CCc1c(OC)nc2nc(C(=O)c3cccs3)cn2c1C [Example 60, 6-ethyl 7-methoxy 5-methylimidazo/1,2-a/pyrimidin-2-yl(2-thienyl)methanone]		50 mg/kg
CCc1c(OC)nc2nc(C(=O)c3ccccn3)cn2c1C [Example 61, (6-ethyl 7-methoxy 5-methylimidazo/1,2-a/pyrimidin-2-yl)(2-pyridinyl)methanone]		50 mg/kg
CCc1c(OC)nc2nc(C(=O)c3ccc(F)cc3)cn2c1C [Example 62, (6-ethyl 7-methoxy 5-methylimidazo/1,2-a/pyrimidin-2-yl)(4-fluorophenyl)methanone]		10 mg/kg
CCc1c(OC)nc2nc(C(=O)c3cccc(C(F)(F)F)c3)cn2c1C [Example 63, (6-ethyl 7-methoxy 5-methylimidazo/1,2-a/pyrimidin-2-yl)/(3-trifluoromethyl)phenyl/methanone]		50 mg/kg
CCc1c(OC)nc2nc(C(C)=O)cn2c1C [Example 64, 1-(6-ethyl 7-methoxy 5-methylimidazo/1,2-a/pyrimidin-2-yl)ethanone]		50 mg/kg
